Results as given in ChEMBL document CHEMBL1909046, “DrugMatrix in vitro pharmacology data”.

Tests used:
[1] = DRUGMATRIX: Calcium Channel Type L, Benzothiazepine radioligand binding (ligand: [3H] Diltiazem); assay type: cell membranes, Rattus norvegicus, Wistar, Brain, Membrane; details: Not Active = under 50% inhibition at 10 µM
[2] = molecular target: T1, Cholecystokinin receptor type A (Homo sapiens, UniProt P32238); assay type: cell membranes, Membrane; details: 1321-n1; note: in other assays of this panel Not Active means under 50% inhibition at 10 µM
T1 sequence (P32238 whole entry): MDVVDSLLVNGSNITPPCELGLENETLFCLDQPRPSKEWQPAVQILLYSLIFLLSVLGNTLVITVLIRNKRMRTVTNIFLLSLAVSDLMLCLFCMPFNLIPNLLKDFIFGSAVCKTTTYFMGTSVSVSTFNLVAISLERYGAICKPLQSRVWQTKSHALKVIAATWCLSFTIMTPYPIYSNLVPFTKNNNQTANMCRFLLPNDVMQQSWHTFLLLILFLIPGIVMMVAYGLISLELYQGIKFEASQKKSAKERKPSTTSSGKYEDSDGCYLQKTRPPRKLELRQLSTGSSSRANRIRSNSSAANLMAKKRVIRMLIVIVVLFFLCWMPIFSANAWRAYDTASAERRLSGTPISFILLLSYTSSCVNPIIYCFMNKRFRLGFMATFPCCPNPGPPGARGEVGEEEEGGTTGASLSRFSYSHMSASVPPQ

[3] = molecular target: Mitogen-activated protein kinase 14 (Homo sapiens, UniProt Q16539); parameters: species or system Escherichia coli;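 note: inhibition of p38alpha enzyme activity in a biochemical kinase assay, with myelin basic protein serving as substrate; in other assays of this panel Not Active means under 50% inhibition at 10 µM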
[4] = molecular target: T2, 5-hydroxytryptamine receptor 2C (Homo sapiens, UniProt P28335); assay: DRUGMATRIX: Serotonin (5-Hydroxytryptamine) 5-HT2C radioligand binding (ligand: [3H] Mesulergine); assay type: cell membranes, CHO-K1, Membrane; details: cho-k1; Not Active = under 50% inhibition at 10 µM
T2 sequence (P28335 whole entry): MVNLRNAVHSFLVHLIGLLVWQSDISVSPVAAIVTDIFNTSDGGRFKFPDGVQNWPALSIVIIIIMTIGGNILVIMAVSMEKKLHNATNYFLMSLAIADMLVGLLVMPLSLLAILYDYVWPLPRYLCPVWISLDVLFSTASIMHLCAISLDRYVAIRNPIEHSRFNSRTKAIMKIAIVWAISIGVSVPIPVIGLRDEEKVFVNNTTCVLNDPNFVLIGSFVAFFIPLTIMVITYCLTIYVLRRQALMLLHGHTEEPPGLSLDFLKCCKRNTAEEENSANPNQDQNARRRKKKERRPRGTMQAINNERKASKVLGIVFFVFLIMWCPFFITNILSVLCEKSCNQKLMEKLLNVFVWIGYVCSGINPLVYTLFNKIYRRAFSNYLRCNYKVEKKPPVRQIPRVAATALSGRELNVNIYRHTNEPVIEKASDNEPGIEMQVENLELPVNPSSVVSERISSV

D(4) dopamine receptor = molecular target: T3, D(4) dopamine receptor (Homo sapiens, UniProt P21917); assay: DRUGMATRIX: Dopamine D4.2 radioligand binding (ligand: [3H] Spiperone); assay type: cell membranes, CHO-K1, Membrane; details: cho-k1; Not Active = under 50% inhibition at 10 µM
T3 sequence (P21917 whole entry): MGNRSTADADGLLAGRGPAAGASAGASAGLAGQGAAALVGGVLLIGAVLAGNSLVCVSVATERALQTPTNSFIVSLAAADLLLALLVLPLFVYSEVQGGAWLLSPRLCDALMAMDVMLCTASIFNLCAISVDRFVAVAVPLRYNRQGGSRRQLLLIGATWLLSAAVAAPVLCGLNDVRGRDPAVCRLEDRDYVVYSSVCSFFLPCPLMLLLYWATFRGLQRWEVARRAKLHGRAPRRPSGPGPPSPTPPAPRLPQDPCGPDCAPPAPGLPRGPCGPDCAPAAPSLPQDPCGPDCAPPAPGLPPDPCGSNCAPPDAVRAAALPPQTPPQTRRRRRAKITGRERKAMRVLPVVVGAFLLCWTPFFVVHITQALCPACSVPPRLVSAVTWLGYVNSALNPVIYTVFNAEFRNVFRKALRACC

Estrogen receptor = molecular target: T4, Estrogen receptor (Homo sapiens, UniProt P03372); details: sf9; note: in other assays of this panel Not Active means under 50% inhibition at 10 µM
T4 sequence (P03372 whole entry): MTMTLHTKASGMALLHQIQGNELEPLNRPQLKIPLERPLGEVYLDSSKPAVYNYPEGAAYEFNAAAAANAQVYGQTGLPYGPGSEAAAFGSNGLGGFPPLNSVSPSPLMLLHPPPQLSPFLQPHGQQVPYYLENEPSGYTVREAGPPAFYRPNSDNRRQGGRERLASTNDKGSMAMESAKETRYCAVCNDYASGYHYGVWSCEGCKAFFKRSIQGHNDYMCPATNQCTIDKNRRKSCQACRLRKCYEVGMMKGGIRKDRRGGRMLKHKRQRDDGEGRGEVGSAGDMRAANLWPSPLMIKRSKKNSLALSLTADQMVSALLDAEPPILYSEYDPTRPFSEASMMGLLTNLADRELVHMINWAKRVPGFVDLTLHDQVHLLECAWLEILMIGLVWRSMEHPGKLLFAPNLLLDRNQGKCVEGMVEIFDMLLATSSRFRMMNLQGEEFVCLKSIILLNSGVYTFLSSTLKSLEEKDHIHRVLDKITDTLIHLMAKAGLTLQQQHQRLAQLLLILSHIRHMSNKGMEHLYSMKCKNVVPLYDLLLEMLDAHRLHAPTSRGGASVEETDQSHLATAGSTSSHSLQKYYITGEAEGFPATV

Mitogen-activated protein kinase 14, sequence (Q16539 whole entry): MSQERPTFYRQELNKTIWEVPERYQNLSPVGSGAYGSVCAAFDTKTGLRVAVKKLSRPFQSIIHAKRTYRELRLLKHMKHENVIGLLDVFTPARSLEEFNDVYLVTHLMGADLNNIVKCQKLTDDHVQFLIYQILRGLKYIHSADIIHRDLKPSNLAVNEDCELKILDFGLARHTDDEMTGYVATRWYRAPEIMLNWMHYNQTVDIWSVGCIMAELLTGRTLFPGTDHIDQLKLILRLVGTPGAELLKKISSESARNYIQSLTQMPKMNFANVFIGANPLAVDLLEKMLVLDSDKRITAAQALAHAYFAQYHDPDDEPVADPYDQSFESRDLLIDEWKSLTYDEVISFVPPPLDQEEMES

CC(=O)[C@H]1[C@H](C#N)C[C@H]2[C@@H]3CC=C4C[C@@H](O)CC[C@]4(C)[C@H]3CC[C@@]21C [PREGNENOLONE CARBONITRILE]
Not Active: IC50 [1] | Ki [1] | IC50 [2] | IC50 [3] | IC50 [4] | IC50 (D(4) dopamine receptor) | IC50 (Estrogen receptor)

C[C@@H]1CC[C@@]2(OC1)O[C@H]1[C@@H](O)[C@H]3[C@@H]4CC[C@H]5C[C@@H](O[C@@H]6O[C@H](CO)[C@H](O[C@@H]7O[C@H](CO)C(O)[C@H](O[C@@H]8OC[C@@H](O)[C@H](O)[C@H]8O)[C@H]7O[C@@H]7O[C@H](CO)[C@H](O)[C@H](O[C@@H]8O[C@H](CO)[C@@H](O)[C@H](O)[C@H]8O)[C@H]7O)[C@H](O)[C@H]6O)[C@H](O)C[C@]5(C)[C@H]4CC[C@]3(C)[C@H]1[C@@H]2C (some centres undefined) [DIGITONIN]
Not Active: IC50 [1] | Ki [1] | IC50 [2] | IC50 [3] | IC50 [4] | IC50 (D(4) dopamine receptor) | IC50 (Estrogen receptor)
